Measurements published in the METLIN SMRT retention time set (Domingo-Almenara et al. 2019).

Test: gradient 5% acetonitrile 3 min, to 50% in 2 min, to 85% in 15 min, held 3 min, 100 µL/min
Conditions: column: Zorbax Extend-C18 2.1 x 50 mm; eluents: water / acetonitrile, 0.1% formic acid
How it was run: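 Data were gathered over 3 months by HPLC coupled to a quadrupole time-of-flight mass spectrometer, operated in positive and negative ionization mode. Mixtures of ~100 pure standards ran on a Zorbax Extend-C18 column (2.1 × 50 mm, 1.8 μm) at 100 μL/min, with water and acetonitrile each containing 0.1% formic acid and dead and dwell volumes of 40 μL and 900 μL. Retention time was read from adduct peaks picked by computer and checked manually.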

RP-LC retention time [s] | Compound
1120 | CCOC(=O)c1nc(N2CCN(c3cc(C)ccc3C)CC2)c2ccccc2n1
760 | Cc1ccccc1CNC(=O)C1CCCN(C(=O)C2Sc3ccccc3NC2=O)C1 (stereo not given)
861 | Cc1ccc(Cn2cc(C(=O)O)c(S(=O)(=O)N3CCSCC3)n2)cc1
615 | Cc1noc(CNC(=O)C2CCN(C(=O)NCc3ccc(F)cc3)CC2)n1
864 | Cn1nc(-c2nnc(-c3ccccc3Cl)o2)c2c1CCN(C(=O)COc1ccccc1)C2
589 | CC1CCCN(C(=O)c2cc3c(s2)CCN(C(=O)c2ccccc2)C3)C1 (stereo not given)
758 | O=C(NCc1cc(-c2ccc3c(c2)OCO3)on1)c1cc(=O)c2ccccc2o1
978 | O=C(Cn1cc(-c2ccccc2)c(N2CCOCC2)n1)N1CCN(c2ccccc2F)CC1
765 | CCOc1ccc(NC(=O)Cn2nc3cc(C)nc(N4CCCC4)n3c2=O)cc1
938 | CCOc1ccc(Cc2nnc(SCC(=O)c3ccc(OC)cc3)o2)cc1
946 | CCCCOc1ccc(-c2cc3c4nnc(CCC(=O)NCc5cccc(OC)c5)n4ccn3n2)cc1
607 | CN1CCCC1c1nc(C2CN(C(=O)CCc3nc4ccccc4s3)C2)no1 (stereo not given)
671 | COc1ccc2oc(-c3noc(C(=O)NCCCN4CCCC4)n3)c(C)c2c1
572 | O=C(C1CCCN1)N1CCC(OCc2nc(-c3cccnc3)no2)CC1 (stereo not given)
744 | O=C(Cc1csc2nc(-c3ccccc3)cn12)Nc1ccc2c(c1)OCCO2
818 | Cc1ccc(N2CCN(C(=O)c3cc(C)n4nccc4n3)CC2)cc1
869 | Cc1ccccc1CNC(=O)C1(C)CCCN(C(=O)Nc2ccc(Br)cc2F)C1 (stereo not given)

RP-LC retention time [s] | Compound
591 | CCCn1nc(C)cc1CN(C)C(=O)c1cn2ccccc2n1
1060 | Cc1ccc(-c2nc(Cn3nnc(C(=O)NC4CCCC4)c3C)c(C)o2)cc1
892 | CCN1CCN(Cc2nc(-c3ccc(N(C)Cc4ccccc4)nc3)no2)CC1
706 | COc1ccc(-c2nc(NC3CC3)c3ccccc3n2)cc1
708 | Cc1cc2nn(CC(=O)N3CCOCC3)c(=O)n2c(-c2cccc(Cl)c2)n1
781 | CCn1nccc1C(=O)N1CCN(c2cc(-c3ccc(Cl)cc3)[nH]n2)CC1
668 | Cc1ccc(N2CCN(C(=O)c3ccc4ncnc(N5CCCC5)c4c3)CC2)cc1
908 | Cc1nnc2ccc(-c3noc(-c4ccccc4Br)n3)cn12
760 | O=C(NC1CCCN(c2cc(-c3ccccc3)[nH]n2)C1)c1ccc2c(c1)OCO2 (stereo not given)
584 | Cc1nc2cccnc2n1CCN1CCN(C(=O)Nc2ccc(F)cc2)CC1
794 | CSc1ccc(-c2nc3ccccn3c2Nc2ccccc2C)cc1
659 | Cc1cc(C(=O)N2CCN(c3ccc(-c4cccs4)nn3)CC2)no1
708 | CCCn1nc2n(c1=O)CCN(Cc1cn[nH]c1-c1ccc(OCC)c(Cl)c1)C2
706 | CCOc1ccc(CC(=O)N2CC(=O)Nc3ccccc32)cc1
667 | CCC(C)NC(=O)C1CCN(Cc2c(C)n(CC)c3ccccc23)CC1 (stereo not given)
548 | CN(C)CCN(Cc1ccco1)C(=O)Cn1nc(Cc2ccncc2)c2ccccc2c1=O
1020 | Cc1nc(-c2ccc(S(=O)(=O)N3CCc4ccccc4C3)cc2)co1

Further lines, the compound ahead of its results:

Compound | RP-LC retention time [s]
CCOC(=O)C1CCN([C@H]2CS(=O)(=O)C[C@@H]2S(=O)(=O)c2ccc(C)cc2)CC1 | 875
COc1ccc(-n2c(=O)n(C)c(=O)c3cc(C(=O)NC4CCCCCC4)cnc32)cc1 | 924
CCn1cc(CCN2CCC(C(=O)NC3CCCCC3)CC2)c2cccnc21 | 619
COC(=O)c1cc2ccsc2n1Cc1cccc(C#N)c1 | 1010
O=C(Nc1ccccc1C(F)(F)F)N(CCc1cccs1)C1CC1 | 1100
Cc1cc(N2CCN(C)CC2)nc(N2CCN(S(=O)(=O)c3cc(C)c(C)cc3C)CC2)n1 | 598
CCOC(=O)c1nn(-c2ccc(F)cc2)c(=O)cc1NCC1CCCO1 (stereo not given) | 766
C[C@@H]1COC(Nc2ccc3ncnc(Nc4ccc(OCc5nccs5)c(Cl)c4)c3c2)=N1 | 634
Cc1cc(C2CCCN2C(=O)c2cc(F)c(F)cc2Cl)no1 (stereo not given) | 832
Nc1ccc(CC(CC(=O)O)C(=O)O)cc1 (stereo not given) | 850
CN1CC(c2nc(C3CC3)no2)C2(CCN(C(=O)c3ccc4c(c3)OCO4)CC2)C1 (stereo not given) | 609
Cn1nc(C(=O)N2CCCC2)c2c1CCN(C(=O)CCC(=O)N1CCCCCC1)C2 | 664
Cc1ccc(NC(=O)NC2CCN(c3ccccc3)C2=O)cc1 (stereo not given) | 821
COC(=O)c1ccc(C(=O)NCC2CCN(S(=O)(=O)C3CC3)CC2)cc1 | 732
CCCN1C(=O)NC2(CCN(C(=O)Nc3ccccc3C(F)(F)F)CC2)C1=O | 705
CCn1c(C(=O)NCCN2CCCC2)c(N2CCCC2=O)c2cc(OC)ccc21 | 624
Cc1oc(-c2[nH]ncc2C(=O)N2CCCC2)cc1S(=O)(=O)NCc1ccc(F)cc1 | 709
Cc1cc(C)cc(S(=O)(=O)NCc2c(-c3ccccc3)nc3sc(C)nn23)c1 | 921
CN1CCN(CCCNC(=O)CC2CCN(C(=O)c3cc4cc(Cl)ccc4[nH]3)CC2)CC1 | 569

Compound | RP-LC retention time [s]
Cc1cc(N2CCN(S(=O)(=O)c3ccc(F)c(F)c3)CC2)nc(N2CCCCC2)n1 | 775
O=C(Cn1ccc2sccc2c1=O)Nc1cccc(Cl)c1 | 800
Cc1cc(C)n(-c2cc(NCCNC(=O)c3ccc(Br)o3)ncn2)n1 | 718
CCCn1cc(S(=O)(=O)Nc2cccc(OC)c2)c2cccnc21 | 840
CNC(=O)[C@H]1C[C@H](Oc2ccccc2)CN1C(=O)CCc1nc2ccccc2s1 | 759
Cn1cc(S(=O)(=O)N2CCC(C(=O)N3CCOCC3)CC2)cc1C(=O)N1CCCC1 | 626
CCc1noc2nc(C)n(CC(=O)NCCC3=CCCCC3)c(=O)c12 | 908
CN(Cc1ccco1)C(=O)C1CCCN(c2ncnc3c2nc2n3CCCCC2)C1 (stereo not given) | 738
O=C(Oc1cccc([N+](=O)[O-])c1)N1CCCCC1 | 896
COc1ccc(CN2CCN(C(=O)CCC(=O)N3CCCn4nc(C)cc43)CC2)c(OC)c1OC | 595
CCN1CCCn2cc(S(=O)(=O)Nc3ccc(C)c(C)c3)cc2C1=O | 778
CC(C)OCCCNC(=O)c1ccc2c(c1)CCCN2S(C)(=O)=O | 767
CCN1CCN(C(=O)Cc2c(C)nc3nc(-c4ccc(C(C)(C)C)cc4)nn3c2C)CC1 | 673
CS(=O)(=O)c1ccc(-c2cccc(NC(=O)Cc3cccs3)c2)nn1 | 707
CCn1c(=O)sc2cc(S(=O)(=O)N3CCC(C(=O)Nc4cc(C)ccn4)CC3)ccc21 | 702
O=C(Nc1cnc(N2CCC(N3CCCCC3)CC2)c(C(=O)O)c1)c1ccc(Br)cc1 | 637
Cc1ccc(CNC(=O)Cn2nc3c(Oc4cc(C)cc(C)c4)nccn3c2=O)cc1 | 943
Cc1ccc2[nH]cc(CCN3CC(C(=O)NCc4ccc5c(c4)OCO5)CC3=O)c2c1 (stereo not given) | 770
Cc1ccc(-n2nc(C)c3sc(N4CCCC(C(=O)Nc5cccc(Cl)c5C)C4)nc32)cc1 (stereo not given) | 1310

Compound | RP-LC retention time [s]
Cc1cccnc1NC(=O)c1c(O)c2cc(F)cc3c2n(c1=O)C(C)CC3 (stereo not given) | 848
Cc1ccc(S(=O)(=O)N2C(=O)CCC2C(=O)Nc2cccc(C)c2C)cc1C (stereo not given) | 976
CC1(C)CC2CC(C)(CN2c2ncnc(N)c2[N+](=O)[O-])C1 (stereo not given) | 867
Cc1cc(F)ccc1NC(=O)C1CCN(S(=O)(=O)c2c(C)[nH]c(C)c2C(=O)N2CCCC2)CC1 | 691
CCOCCCNC(=O)C1CCCN(C(=O)c2[nH]c(C)cc2C)C1 (stereo not given) | 678
Cc1ccc(NC(=O)C2CCCN(c3ccc(=O)n(-c4cccc(Cl)c4)n3)C2)c(C)c1 (stereo not given) | 964
COc1ccc(OC)c(C2CCN(C(=O)c3nc(-c4oc5c(C)cccc5c4C)no3)C2)c1 (stereo not given) | 1310
Cc1cc(NC(=O)C2CCN(C(=O)c3snnc3C)CC2)no1 | 618
CCCCNC(=O)C1CCN(c2nc(NC(C)=O)c(C(=O)N3CCCC3)s2)CC1 | 683
CC1CN2C=NC(N3CCN(C(=O)Nc4ccc(C(F)(F)F)cc4)CC3)=CC2=N1 (stereo not given) | 687
Cc1nnsc1C(=O)NCC1(O)CCCC1 | 602
CCCCS(=O)(=O)N1CCC(C2CCN(C(=O)NC)CC2)C1 (stereo not given) | 682
CC(C)(C)c1ccc(C(=O)Nc2cnc(N3CCOCC3)nc2)cc1 | 923
CC1CCN(C(=O)c2ccccc2OCC2CCCN(C3CCCC3)C2)CC1 (stereo not given) | 696
COCCNC(=O)C(=O)NCC1CCN(C(=O)c2ccccc2F)CC1 | 609
O=S(=O)(CCCOc1ccc2c(c1)OCO2)NCCC1=CCCCC1 | 1000
CCc1nc2sc(C(C)C)nn2c1S(=O)(=O)N1CCCC1 | 945
NC(=O)c1nsc2c(=O)n(CC(=O)NCc3ccco3)cnc12 | 589
